The source of these data is patent US6974804B2, “Esters” (Unilever Home & Personal Care USA, division of Conopco, Inc., priority 2000, dated 2005).

Where only a bound is given, the exact number is not on record here.

Holding throughout (type): physicochemical
A short description of series [1]: Light transmission at 580 nm (% T). The conditions noted are these: for Clarity % T: 9% REF2 and 1% of the specified ester in 60:40 hydrogenated polydecene:DC245, 580 nm. The procedure:
The translucency of a composition may be measured by placing a sample of standardised thickness in the light path of a spectrophotometer and measuring transmittance, as a percentage of light transmitted in the absence of the gel.
This test was carried out using a dual-beam spectrophotometer. The sample of composition was poured hot into a 4.5 ml cuvette made of poly(methyl-methacrylate) (PMMA) and allowed to cool to an ambient temperature of 20-25° C. Such a cuvette gives a 1 cm thickness of composition. […] A transmittence measured at any temperature in the range from 20-25° C. is usually adequately accurate, but measurement is made at 22° C. if more precision is required.

The nature of series [2]: Stability testing of gels: crystal growth visible by eye on storage at 37° C. The conditions noted are these: for Observations: 9% of REF1 and 1% of additional structurant. Here is the method: Gels were made up using 10% structurant in a 60:40 mixture of Hydrogenated Polyisobutene (Panalene L14E):DC245. The gels, in sealed glass bottles, were left to stand for 18 hrs at room temperature, after which they were transferred to an oven thermostatically controlled to 37° C. Samples were checked periodically for signs of crystal growth visible by eye. REF1 is cellobiose octanonanoate.
Gels were made up and tested in accordance with the procedure in Example 6, as such or modified by employing a weight ratio of 9% of REF1 and 1% of an additional structurant as specified in Table 13 below.
The test procedure of Example 9 was repeated, but using ACB structurant REF2 alone as the structurant or to which a CHME structurant was added.

The nature of series [3]: DSC of gels: fibre dissolution temperature (FDT) and solubility of structurant. The note with it: for Solubility of structurant at 25° C.: from DSC of gel, relative to benchmark REF 2; for FDT: gel heated at 5 K/min in DSC, peak temperature of the highest peak. Here is the method: In this Example the Fibre dissolution temperature (FDT) is measured in the DSC process described later herein, by observing when the fibres dissolve whilst the temperature of sample rises. FDT is taken to be the peak temperature of the highest peak.
In REF2 and REF3, the acyl substituents at the other seven cellobiose sites are nonanoyl.
Samples of gel (about 20 mg) were sealed in stainless steel capsules for DSC. An empty stainless steel capsule was used as the physical reference. The samples were subjected to the following temperature programme:
The sample was heated to 100° C. and held at 100° C. for 1 minute, in order to obtain an isotropic solution. The sample was then cooled at 5 K/min to −20° C. The sample was held at −20° C. for 1 minute. The sample is now a gel on the bottom of the sample capsule prepared in a reproducible manner. The gel was then heated at 5 K/min to 100° C. Data was also obtained with empty stainless steel pans as both physical sample and reference. This blank data was later subtracted from the sample data to remove any curvature in the base line.

Series [4] can be described thus: Visual assessment score (clarity of gel in 1 cm cuvette). The note with it: for Clarity Visual (assessment score): 9% REF2 and 1% of the specified ester in 60:40 hydrogenated polydecene:DC245, scale −12 to 8; for Clarity Visual (appearance): 60:40 hydrogenated polydecene:DC245 gelled with 9% REF2 and 1% of the specified cellobiose ester. From the text:
A gel contained within a 1 cm thick cuvette was placed directly on to a sheet of white paper on which 21 sets of figures where printed in black. The size and thickness of the figures varied systematically and were numbered from −12 (the largest, thickest set) through 0 to 8 (the smallest thinnest set) The score given to each gel was the highest numbered set which could be read clearly through the gel, the higher the number, the higher the clarity.

Series [5] can be described thus: Gelling of water-immiscible cosmetic liquids in 96 well glass micro-titre plate. Details: key: gel; g4: gel after overnight (18 hrs) storage at 4° C.; g22: gel after overnight (18 hrs) storage at 22° C.; sg: soft gel; sg22: soft gel after overnight (18 hrs) storage at 22° C.; solution; *: the test at 4° C. was not carried out. The conditions noted are these: for gelling of ISA: 150° C. 2.5 hours, cooled to ambient. An outline of the steps: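 Gel formation was scored by eye and by poking with a micro-spatula at three points: on cooling to room temperature, after 18 h at 18 °C, and after another 18 h at 4 °C. Before this, mixtures of cosmetic liquid with roughly 5% or 10% cellobiose ester were heated at 150 °C for 2.5 h.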

[6] abbreviates: 10% structurant in 60:40 Panalene L14E:DC245, after 17 days at 37° C.
Setting [7] is: 5% cellobiose ester in Fluid AP.
[8] abbreviates: 5% cellobiose ester in Mineral oil.
[9] abbreviates: 5% cellobiose ester in Polydecene.
Where [10] appears, read: 10% cellobiose ester in Fluid AP.
[11] abbreviates: 10% cellobiose ester in Mineral oil.
[12] abbreviates: 10% cellobiose ester in Polydecene.

As for `CCCCCCCCC(=O)OC[C@H]1O[C@@H](O[C@H]2[C@H](OC(=O)CCCCCCCC)[C@@H](OC(=O)CCCCCCCC)C(OC(=O)CCCCCCCC)O[C@@H]2COC(=O)CCCCCCCC)[C@H](OC(=O)CCCCCCCC)[C@@H](OC(=O)CCCCCCCC)[C@@H]1OC(=O)CCCCCCCC` (stereo partly shown) [REF 2, cellobiose octanonanoate], the “Clarity % T” value in series [1] came out at 41%. Besides, the “% T Ex 1.12” value in series [1] (CHME = Ex 1.12, CHME:REF2 at stated weight ratio, total 10% in 60:40 Silkflo 364NF:DC245) worked out at 41%. In addition, the “% T Ex 1.13” value in series [1] (CHME = Ex 1.13, CHME:REF2 at stated weight ratio, total 10% in 60:40 Silkflo 364NF:DC245) was 41%. The Observation result is “Slight loss of clarity after 7 days” in series [2] (10% structurant in 60:40 Panalene L14E:DC245, after 7 days at 37° C.); “Slight loss of clarity after 7 days at 37 °C” in series [2] (10% structurant in 60:40 Panalene L14E:DC245, after 7 days at 37° C., listed as REF2); “Fine crystals on surface after 8” in series [2] (10% structurant in 60:40 Panalene L14E:DC245, after 8 days at 37° C.); “Fine crystals on surface after 8 days at 37 °C” in series [2] (10% structurant in 60:40 Panalene L14E:DC245, after 8 days at 37° C., listed as REF2); “Fine needle crystals throughout gel” in series [2] (10% structurant in 60:40 Panalene L14E:DC245, after 9 days at 37° C.); “Fine needle crystals throughout gel after 9” in series [2] (10% structurant in 60:40 Panalene L14E:DC245, after 9 days at 37° C., listed as REF2). Also, the Observation entry is “More needle crystals in gel bulk and crystal” in series [2] (10% structurant in 60:40 Panalene L14E:DC245, after 13 days at 37° C., listed as REF2); “Large amount of crystals throughout” in series [2] (setting [6]). In addition, the “Solubility of structurant at 25° C.” value in series [3] is “Benchmark. Some”. In series [3], this molecule returned an FDT of 47 °C. Besides, the “Clarity Visual (assessment score)” value in series [4] was “slight haze 5”. Moreover, in series [4], the “Clarity Visual (appearance)” value is “transparent/”.

With “cellobiose heptanonanoate monocyclohexanoate [Ex 1.10]”, the “Clarity % T” value in series [1] came to 42%. Moreover, in series [2] (after 12 days at 37° C.), the Observations result was “No crystal growth after 12 days at 37 °C”. In addition, the Observation entry is given as “No crystals after 17 days” in series [2] (setting [6]); “Some needle crystals on surface after 11” in series [2] (REF2 to which the CHME structurant was added, after 11 days at 37° C.); “Some needle crystals in gel bulk after 12” in series [2] (REF2 to which the CHME structurant was added, after 12 days at 37° C.). Besides, the “Clarity Visual (assessment score)” value in series [4] was “slight haze 6”. In addition, in series [4], the “Clarity Visual (appearance)” value is given as “transparent/”. The same molecule displayed a Visual in series [4] (gel in 60:40 w/w Silkflo 364:DC245, score scale −12 to 8) above 8. Moreover, the “gelling of DC556” value in series [5] (5% cellobiose ester in DC556) and in series [5] (10% cellobiose ester in DC556) was “gel” in each case. Also, the “gelling of Fluid AP” value in series [5] (setting [7]) and in series [5] (setting [10]) was “gel” in each case. In addition, the “gelling of IPM” value is given as “sol” in series [5] (5% cellobiose ester in IPM) and “g4” in series [5] (10% cellobiose ester in IPM). For the same molecule, the “gelling of ISA” value in series [5] (5% cellobiose ester in ISA) is reported as “g22”; in series [5] (10% cellobiose ester in ISA), “gel”. Further, the “gelling of Mineral oil” value in series [5] (setting [8]) and in series [5] (setting [11]) was “gel” throughout. Further, the “gelling of Polydecene” value in series [5] (setting [9]) and in series [5] (setting [12]) was “gel” each time.

As for `CCCCCCCCC(=O)OCC1OC(OC2C(COC(=O)CCCCCCCC)OC(OC(C)=O)C(OC(=O)CCCCCCCC)C2OC(=O)CCCCCCCC)C(OC(=O)CCCCCCCC)C(OC(=O)CCCCCCCC)C1OC(=O)CCCCCCCC` (mixture of isomers) [Ex 1.6], in series [1], the “Clarity % T” value is listed as 49%. In addition, the “Solubility of structurant at 25° C.” value in series [3] is recorded as “Less soluble. No”. Further, in series [3], the FDT was 70 °C. The “Clarity Visual (assessment score)” value in series [4] is above 8. Also, the “Clarity Visual (appearance)” value in series [4] is “transparent”. Besides, the entries for the “gelling of DC556” value in series [5] (5% cellobiose ester in DC556) and in series [5] (10% cellobiose ester in DC556) were “sg22” and “gel”, respectively. The figures for the “gelling of Fluid AP” value in series [5] (setting [7]) and in series [5] (setting [10]) were “sg” and “gel”, respectively. The entries for the “gelling of ISA” value in series [5] (5% cellobiose ester in ISA) and in series [5] (10% cellobiose ester in ISA) were “sg” and “gel”, respectively. Moreover, the “gelling of Mineral oil” value in series [5] (setting [8]) is “sg”; in series [5] (setting [11]) it was “gel”. Moreover, the “gelling of Polydecene” value in series [5] (setting [9]) and in series [5] (setting [12]) was “gel” throughout.

Regarding `CCCCCCCCC(=O)OCC1OC(OC2C(COC(=O)CCCCCCCC)OC(OC(C)=O)C(OC(=O)CCCCCCCC)C2OC(=O)CCCCCCCC)C(OC(=O)CCCCCCCC)C(OC(=O)CCCCCCCC)C1OC(=O)CCCCCCCC` (mixture of isomers) [Ex 1.5], the “Clarity % T” value in series [1] is 49%. Further, the “Solubility of structurant at 25° C.” value in series [3] is recorded as “Less soluble. No”. Further, in series [3], the FDT was found to be 50 °C. In addition, the “Clarity Visual (assessment score)” value in series [4] is above 8. The “Clarity Visual (appearance)” value in series [4] is reported as “transparent”. The entries for the “gelling of DC556” value in series [5] (5% cellobiose ester in DC556) and in series [5] (10% cellobiose ester in DC556) were “g22” and “gel”, respectively. Besides, the “gelling of Fluid AP” value in series [5] (setting [7]) and in series [5] (setting [10]) was “gel” in each case. The results for the “gelling of ISA” value in series [5] (5% cellobiose ester in ISA) and in series [5] (10% cellobiose ester in ISA) were “g22” and “gel”, respectively. Besides, the “gelling of Mineral oil” value was “g22” in series [5] (setting [8]) and “gel” in series [5] (setting [11]). The “gelling of Polydecene” value in series [5] (setting [9]) and in series [5] (setting [12]) was “gel” each time.

As for `CCCCCCCCC(=O)OCC1OC(OC2C(COC(=O)CCCCCCCC)OC(OC(=O)CCCCCCCC)C(OC(=O)CCCCCCCC)C2OC(=O)CCCCCCCC)C(OC(=O)CCCCCCCC)C(OC(=O)CCCCCCCC)C1OC(=O)CCCCCCCC` (mixture of isomers) [REF 3, reference compound], in series [1], the “Clarity % T” value was 46%. Besides, the Observations result in series [2] (after 1 day at 37° C.) was “Some crystal growth on gel surface after”. Further, in series [2] (after 9 days at 37° C.), the Observations entry is “Crystals throughout gel after 9 days at”. The Observations in series [2] (after 13 days at 37° C.) was 37° C.; More crystals throughout gel after. For the same molecule, in series [3], the “Solubility of structurant at 25° C.” value is “Slightly less soluble” and the FDT was found to be 47 °C. In addition, in series [4], the “Clarity Visual (assessment score)” value is given as “translucent 4” and the “Clarity Visual (appearance)” value was “transparent/”.
